Results taken from patent publication US4118561A, “7-(Substituted)-7H-pyrrolo[3,2-f]quinazoline-1,3-diamines” (priority 1977, dated 1978).
Converted amounts (≈) assume the structure as drawn. Like-named read-outs stand apart in the source and are kept apart here.

Columns and labels:
[1] = tested on: Plasmodium berghei KBG 173; assay: Antimalarial blood schizonticidal test in mice; type: in vivo, Plasmodium berghei (infected ICR/HA Swiss mice); parameters: ΔMST (increase in mean survival time): unit: days; conditions: for ED100 / minimal effective dose: Plasmodium berghei, sc, single dose; for ED100: read-out: Lowest Dose Curing All Mice; for minimal effective dose: read-out: Min. Curing Dose; for Cure/Treat at Min. Curing Dose: at the Min. Curing Dose
Description: (§1) In addition, the invention provides compounds which have antimalarial activity in vivo as evidenced by a standard blood schizonticidal test in mice infected with Plasmodium berghei KBG 173.
(§2) Utilizing young ICR/HA Swiss mice and a standard inoculum of Plasmodium berghei KBG 173, it is possible to produce a uniform disease fatal to 100% of untreated animals within 6 to 8 days with a mean survival time of 6.2 days. Test animals weigh from 18 to 22 grams but weight variations in any given experimental or control group are confined to 2-3 grams. All animals in any given test are approximately of the same age. Animals on test are housed in metal-topped plastic cages, given a standard laboratory diet and water ad libitum.
(§3) Test animals receive an intraperitoneal injection of 0.5 ml. of 1:100 dilution of heparinized heart's blood with a minimum of 90% parasitized cells (4 × 10^7 cells), drawn from donor mice infected one week earlier with Plasmodium berghei. The donor strain is maintained by weekly passages in separate groups of mice inoculated with a 0.5 ml. of 1:500 dilution of heparinized heart's blood.
(§4) Test compounds are administered after dissolution or suspension in peanut oil. A single dose is given subcutaneously 72 hours after the mice are infected with Plasmodium berghei. At this time a 10-15 percent parasitemia has developed; the disease is well established but has not produced sufficient debility to alter the response of the host to toxic effects of the drug on test. Since treatment is withheld for three days to permit the infection to become well established and death occurs in untreated controls within 6-8 days, it is felt that this system presents a candidate compound with the maximum challenge. In order to check factors such as changes in the infectivity of Plasmodium berghei or in the susceptibility of the host or to detect technical errors, a group of infected animals treated with pyrimethamine at dose levels producing definite increases in survival time is included in a positive control in every experiment.
(§5) In each experiment test compounds are administered in graded dosages. […] However, if an active drug is toxic for the host, its toxicity may become a limiting factor; continued increases in dose levels also increase the toxic effects and may result in the diminution of survival times. Deaths prior to the sixth day, when untreated controls begin to die, are regarded as nonparasitic and become the basis for toxicity evaluations. […] In calculating mean survival time, toxic deaths and 60-day survivors are not included.
(§6) Compounds are considered active which produce a cure in at least one test animal or which produce significant increases in mean survival times of the treated animals as compared with the mean survival times of untreated controls, provided that no drug related deaths (toxicity) are noted at the active dose.

[2] = Antimalarial blood schizonticidal test in mice; type: in vivo, Plasmodium berghei (infected ICR/HA Swiss mice); parameters: ΔMST (increase in mean survival time): unit: days; conditions: mouse, in vivo, sc, single dose, read-out: Highest Non-Lethal Dose
Description: as §1, §2, §3, §4, §5, §6

E. coli 9637 = assay: In vitro antibacterial activity (MIC), E. coli 9637; conditions: Escherichia coli, 9637, 18 h
S. aureus 53-180 = assay: In vitro antibacterial activity (MIC), S. aureus 53-180; conditions: Staphylococcus aureus, 53180, 18 h
P. vulgaris 6896 = assay: In vitro antibacterial activity (MIC), P. vulgaris 6896; conditions: Proteus vulgaris, 6896, 18 h
N. catarrhalis 8193 = assay: In vitro antibacterial activity (MIC), N. catarrhalis 8193; conditions: 18 h
S. paratyphi 11737 = assay: In vitro antibacterial activity (MIC), S. paratyphi 11737; type: cell-based; conditions: Salmonella enterica, 18 h
K. pneumoniae 10031 = assay: In vitro antibacterial activity (MIC), K. pneumoniae 10031; conditions: Klebsiella pneumoniae, 10031, 18 h
S. aureus Smith = assay: In vitro antibacterial activity (MIC), S. aureus Smith; conditions: Staphylococcus aureus, 18 h
[3] = infected mice, highest dose with no deaths for any reason
[4] = 336 h, s.c., alive on day 14 considered cured, no 60-day data
[5] = s.c., alive on day 14 considered cured
[6] = alive on day 14 considered cured, no 60-day data

Row | SMILES | ED100 ([1]; 1440 h, s.c., 60-day survivors) [mg/kg] | minimal effective dose ([1]; 1440 h, s.c., 60-day survivors) [mg/kg] | Cure/Treat at Min. Curing Dose ([1]; s.c., 60-day survivors) | ΔMST (increase in mean survival time) ([1]; s.c., dose 5 mg. per kg.) | MTD [2, 3] [mg/kg] | MIC (E. coli 9637) [µg/mL] | MIC (S. aureus 53-180) [µg/mL] | MIC (P. vulgaris 6896) [µg/mL] | MIC (N. catarrhalis 8193) [µg/mL] | MIC (S. paratyphi 11737) [µg/mL] | MIC (K. pneumoniae 10031) [µg/mL] | MIC (S. aureus Smith) [µg/mL] | other results
1 | Nc1nc(N)c2c(ccc3c2ccn3Cc2ccc(Cl)cc2)n1 [Example 8] | 20 | 10 | 2/5 | 8.1 | 40 | 0.976 (≈ 3.01 µM) | 0.244 (≈ 0.754 µM) | 0.976 (≈ 3.01 µM) | 0.0038 (≈ 0.0117 µM) | 0.976 (≈ 3.01 µM) | 0.122 (≈ 0.377 µM) | 0.976 (≈ 3.01 µM) | –
2 | Nc1nc(N)c2c(ccc3c2ccn3Cc2cccc(F)c2)n1 [Example 4] | 40 | 10 | 1/5 | – | 40 | 0.244 (≈ 0.794 µM) | 0.031 (≈ 0.101 µM) | 0.488 (≈ 1.59 µM) | < 0.0009 | 0.488 (≈ 1.59 µM) | 0.061 (≈ 0.198 µM) | 0.244 (≈ 0.794 µM) | ΔMST (increase in mean survival time) ([1]; s.c., dose 10 mg. per kg.): 8.3
3 | Cc1ccc(Cn2ccc3c4c(N)nc(N)nc4ccc32)c(C)c1 [Example 22] | – | – | – | – | – | 0.976 (≈ 3.08 µM) | 0.244 (≈ 0.769 µM) | 7.81 (≈ 24.6 µM) | 0.0152 (≈ 0.0479 µM) | 3.4 (≈ 10.7 µM) | 0.244 (≈ 0.769 µM) | 0.244 (≈ 0.769 µM) | ED100 [1, 4]: 5 mg/kg; minimal effective dose [1, 4]: 5 mg/kg; Cure/Treat at Min. Curing Dose [1, 5]: 5/5; ΔMST (increase in mean survival time) ([1]; s.c., dose 2.5 mg. per kg., alive on day 14 considered cured, no 60-day data): 7.6; MTD [2, 6]: 80 mg/kg
4 | Cc1ccc2ccccc2c1Cn1ccc2c3c(N)nc(N)nc3ccc21 [Example 49] | 20 | – | 5/5 | – | 80 | > 250 | 125 (≈ 354 µM) | > 250 | 0.122 (≈ 0.345 µM) | > 250 | 15.6 (≈ 44.1 µM) | 125 (≈ 354 µM) | minimal effective dose ([1]; this is the lowest dose tested): 20 mg/kg
5 | CC(C)c1ccc(Cn2ccc3c4c(N)nc(N)nc4ccc32)cc1 [Example 29] | 20 | 10 | 1/5 | – | 20 | 7.81 (≈ 23.6 µM) | 0.976 (≈ 2.94 µM) | 62.5 (≈ 189 µM) | 0.244 (≈ 0.736 µM) | 62.5 (≈ 189 µM) | 0.488 (≈ 1.47 µM) | 1.95 (≈ 5.88 µM) | ΔMST (increase in mean survival time) ([1]; s.c., dose 10 mg. per kg.): 10.2
6 | Nc1nc(N)c2c(ccc3c2ccn3Cc2cccc3ccccc23)n1 [Example 47] | 20 | 5 | 2/5 | 9.2 | 80 | 15.6 (≈ 46 µM) | 0.976 (≈ 2.88 µM) | 31.3 (≈ 92.2 µM) | 0.0019 (≈ 0.0056 µM) | 62.5 (≈ 184 µM) | 0.976 (≈ 2.88 µM) | 3.9 (≈ 11.5 µM) | –
7 | Cc1cc(-n2ccc3c4c(N)nc(N)nc4ccc32)ccc1[N+](=O)[O-] [Example 80] | 640 | 640 | 5/5 | – | 640 | > 250 | 7.81 (≈ 23.4 µM) | > 250 | 0.0152 (≈ 0.0455 µM) | > 250 | 0.976 (≈ 2.92 µM) | 62.5 (≈ 187 µM) | ΔMST (increase in mean survival time) ([1]; s.c., dose 160 mg. per kg.): 13.9
8 | Nc1nc(N)c2c(ccc3c2ccn3Cc2ccc3ccccc3c2)n1 [Example 48] | 40 | 20 | 4/5 | 7.3 | 1160 | 250 (≈ 737 µM) | 125 (≈ 368 µM) | > 250 | 0.244 (≈ 0.719 µM) | > 250 | 7.81 (≈ 23 µM) | 125 (≈ 368 µM) | –
9 | COc1cccc(Cn2ccc3c4c(N)nc(N)nc4ccc32)c1 [Example 33] | 40 | 10 | 1/5 | 7.6 | 40 | 0.488 (≈ 1.53 µM) | 0.976 (≈ 3.06 µM) | 7.81 (≈ 24.5 µM) | 0.976 (≈ 3.06 µM) | 7.81 (≈ 24.5 µM) | 0.488 (≈ 1.53 µM) | 3.9 (≈ 12.2 µM) | –
10 | Nc1nc(N)c2c(ccc3c2ccn3Cc2ccc(Cl)c(Cl)c2)n1 [Example 10] | 10 | 2.5 | 2/5 | – | 40 | 3.9 (≈ 10.9 µM) | 0.488 (≈ 1.36 µM) | 31.3 (≈ 87.4 µM) | 0.061 (≈ 0.17 µM) | 31.3 (≈ 87.4 µM) | 0.488 (≈ 1.36 µM) | 0.976 (≈ 2.72 µM) | ΔMST (increase in mean survival time) ([1]; s.c., dose 2.5 mg. per kg.): 10.2
11 | Cc1ccc(C)c(Cn2c(C)cc3c4c(N)nc(N)nc4ccc32)c1 [Example 103] | – | – | – | – | – | 250 (≈ 754 µM) | 7.81 (≈ 23.6 µM) | > 250 | 1.95 (≈ 5.88 µM) | > 250 | 15.6 (≈ 47.1 µM) | 31.3 (≈ 94.4 µM) | ED100 [1, 4]: 5 mg/kg; minimal effective dose [1, 4]: 1.25 mg/kg; Cure/Treat at Min. Curing Dose [1, 5]: 1/5; ΔMST (increase in mean survival time) ([1]; s.c., dose 1.25 mg. per kg., alive on day 14 considered cured, no 60-day data): 6.8; MTD [2, 6]: 80 mg/kg
12 | Nc1nc(N)c2c(ccc3c2ccn3Cc2ccc(OC(F)(F)F)cc2)n1 [Example 64, 7-[(4-Trifluoromethoxyphenyl)methyl]-7H-pyrrolo[3,2-f]quinazoline-1,3-diamine] | 10 | 2.5 | 2/5 | – | 10 | 3.9 (≈ 10.4 µM) | 0.244 (≈ 0.654 µM) | 62.5 (≈ 167 µM) | 0.031 (≈ 0.083 µM) | 62.5 (≈ 167 µM) | 0.122 (≈ 0.327 µM) | 0.976 (≈ 2.61 µM) | ΔMST (increase in mean survival time) ([1]; s.c., dose 1.25 mg. per kg.): 9.6
13 | Nc1nc(N)c2c(ccc3c2ccn3Cc2cccc3cccnc23)n1 [Example 51] | 20 | 5 | 1/5 | 6.4 | 40 | 0.244 (≈ 0.717 µM) | 0.122 (≈ 0.358 µM) | 7.81 (≈ 22.9 µM) | 0.0152 (≈ 0.0447 µM) | 1.95 (≈ 5.73 µM) | 0.122 (≈ 0.358 µM) | 0.244 (≈ 0.717 µM) | –
14 | Nc1nc(N)c2c(ccc3c2ccn3Cc2ccccc2Cl)n1 [Example 6] | 20 | 20 | 5/5 | 8.3 | 160 | 0.976 (≈ 3.01 µM) | 0.976 (≈ 3.01 µM) | 7.81 (≈ 24.1 µM) | 0.061 (≈ 0.188 µM) | 1.95 (≈ 6.02 µM) | 0.976 (≈ 3.01 µM) | 0.976 (≈ 3.01 µM) | –
15 | CC(=O)c1ccc(Cn2ccc3c4c(N)nc(N)nc4ccc32)cc1 [Example 61, 7-[(4-Acetylphenyl)methyl]-7H-pyrrolo[3,2-f]-quinazoline-1,3-diamine] | 20 | 2.5 | 4/5 | 12.0 | 40 | 0.488 (≈ 1.47 µM) | 0.122 (≈ 0.368 µM) | 1.95 (≈ 5.88 µM) | 0.0076 (≈ 0.0229 µM) | 0.976 (≈ 2.95 µM) | 0.061 (≈ 0.184 µM) | 0.244 (≈ 0.736 µM) | –
16 | Nc1nc(N)c2c(ccc3c2ccn3Cc2ccccc2F)n1 [Example 3] | 80 | 10 | 3/5 | 9.8 | 80 | 0.488 (≈ 1.59 µM) | 0.244 (≈ 0.794 µM) | 0.976 (≈ 3.18 µM) | 0.0152 (≈ 0.0495 µM) | 0.976 (≈ 3.18 µM) | 0.122 (≈ 0.397 µM) | 0.488 (≈ 1.59 µM) | –
